Experimental data as given in ChEMBL document CHEMBL3580558, “Salternamides A-D from a Halophilic Streptomyces sp. Actinobacterium” (J Nat Prod, 2015).

How the values were obtained:
[1] = Inhibition of porcine cerebral cortex Na+/K+ ATPase incubated at 37 degC for 30 mins using 3-O-methylfluorescein phosphate and […] by fluorometry; type: tissue-based, Sus scrofa
HCT-116 = assay: Antiproliferative activity against human HCT116 cells after 3 days by sulforhodamine B assay; type: functional, cell-based; details: HCT-116, 72 h
K562 = assay: Antiproliferative activity against human K562 cells after 3 days by sulforhodamine B assay; type: functional, cell-based; details: K562, 72 h
A549 = assay: Antiproliferative activity against human A549 cells after 3 days by sulforhodamine B assay; type: functional, cell-based; details: A549, 72 h
[2] = Antiproliferative activity against human SNU638 cells after 3 days by sulforhodamine B assay; type: functional, cell-based; details: SNU-638, 72 h
MDA-MB-231 = assay: Antiproliferative activity against human MDA-MB-231 cells after 3 days by sulforhodamine B assay; type: functional, cell-based; details: MDA-MB-231, 72 h
[3] = Antiproliferative activity against human SKHEP1 cells after 3 days by sulforhodamine B assay; type: functional, cell-based; details: SK-HEP1, 72 h

Compound	IC50 ([1]; read-out: IC50) [µM]	IC50 (HCT-116) [µM]	IC50 (K562) [µM]	IC50 (A549) [µM]	IC50 (MDA-MB-231) [µM]	IC50 [1]	IC50 [2] [µM]	IC50 [3] [µM]
CC(C)=C[C@H](C)C[C@H](C)/C=C/C(=O)NC1=C[C@](O)(CCCCC(=O)O)C=CC1=O		55	> 100	82	27	Not Active	27	56
CC(C)=C[C@H](C)C[C@H](C)/C=C/C(=O)NC1=C[C@](O)(CCCCC(=O)O)[C@@H](O)CC1=O	> 100	> 100	> 100	> 100	> 100		> 100	> 100
C[C@@H]1O[C@@H](O[C@H]2C[C@@H](O)[C@]3(CO)[C@H]4[C@H](O)C[C@]5(C)[C@@H](C6=CC(=O)OC6)CC[C@]5(O)[C@@H]4CC[C@]3(O)C2)[C@H](O)[C@H](O)[C@H]1O [OUABAIN]	3.8							

More lines, main results first:

IC50 ([1]; read-out: IC50) [µM]	IC50 (HCT-116) [µM]	IC50 (K562) [µM]	IC50 (A549) [µM]	IC50 (MDA-MB-231) [µM]	IC50 [1]	Compound	IC50 [2] [µM]	IC50 [3] [µM]
62	0.96	8.9	36	8.9		CC(C)=C[C@H](C)C[C@H](C)/C=C/C(=O)NC1=C[C@](O)(CCCCC(=O)O)C=C(Cl)C1=O	0.96	2.7
30	34	59	> 100	92		CC(C)=C[C@H](C)C[C@H](C)/C=C(\C)C(=O)NC1=C[C@](O)(CCCCC(=O)O)[C@@H](O)CC1=O	15	32
		3.1	0.8	11		COc1cc([C@@H]2c3cc4c(cc3[C@@H](O[C@@H]3O[C@@H]5CO[C@@H](C)O[C@H]5[C@H](O)[C@H]3O)[C@H]3COC(=O)[C@H]23)OCO4)cc(OC)c1O [ETOPOSIDE]	0.5	1.1
